Measurements published in PubChem BioAssay AID256 (DTP/NCI, 2004).
Several values for one entry are separate records, joined by “and”; a condition that tells them apart may be missing. Equal values may be shown once. Toxic doses and inconclusive results are not listed.

Test system: CD2F1 mice, L1210 leukemia ip, survival T/C
Assay: NCI In Vivo Anticancer Drug Screen. Data for tumor model L1210 Leukemia (intraperitoneal) in CD2F1 (CDF1) mice
Conditions: higher = longer survival
How it was run: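 Each value reflects a quotient of treated over vehicle control outcomes in mice with a transplanted tumor.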

`O=c1[nH]cc(F)c(=O)[nH]1` was tested, and the T/C (endpoint: mean survival time, dose: 2.5 mg/kg/injection, schedule: Q01DX009 (ip), vehicle: saline) was 113 % of control, the T/C (endpoint: mean survival time, dose: 3.75 mg/kg/injection, schedule: Q01DX003 (ip), vehicle: saline) was 116 % of control and the T/C (endpoint: mean survival time, dose: 3.75 mg/kg/injection, schedule: Q01DX005 (ip), vehicle: saline) was 114 % of control and 122 % of control. The T/C (endpoint: mean survival time, dose: 4.0 mg/kg/injection, schedule: Q03HX016 (ip), vehicle: water) was 167 % of control, the T/C (endpoint: mean survival time, dose: 4.0 mg/kg/injection, schedule: Q03HX024 (ip), vehicle: water) was 153 % of control and the T/C (endpoint: mean survival time, dose: 5.0 mg/kg/injection, schedule: Q01DX009 (ip), vehicle: saline) was 124 % of control. The T/C (endpoint: mean survival time, dose: 7.5 mg/kg/injection, schedule: Q03HX024 (ip), vehicle: saline) was 157 % of control, the T/C (endpoint: mean survival time, dose: 8.0 mg/kg/injection, schedule: Q01DX009 (ip), vehicle: water) was 151 % of control and the T/C (endpoint: mean survival time, dose: 8.0 mg/kg/injection, schedule: Q03HX016 (ip), vehicle: water) was 154 % of control. The T/C (endpoint: mean survival time, dose: 10.0 mg/kg/injection, schedule: Q01DX002 (ip), vehicle: saline) was 124 % of control, the T/C (endpoint: mean survival time, dose: 10.0 mg/kg/injection, schedule: Q01DX006 (ip), vehicle: saline) was 161 % of control and the T/C (endpoint: mean survival time, dose: 10.0 mg/kg/injection, schedule: Q03HX016 (ip), vehicle: saline) was 152 % of control. For the same molecule, the T/C (endpoint: mean survival time, dose: 10.8 mg/kg/injection, schedule: Q01DX009 (ip), vehicle: saline) was 150 % of control, the T/C (endpoint: mean survival time, dose: 12.0 mg/kg/injection, schedule: Q04DX003 (ip), vehicle: saline) was 121 % of control and the T/C (endpoint: mean survival time, dose: 12.5 mg/kg/injection, schedule: Q03HX024 (oral), vehicle: saline) was 122 % of control. The T/C (endpoint: mean survival time, dose: 13.3 mg/kg/injection, schedule: Q01DX009 (ip), vehicle: saline sonified) was 168 % of control, the T/C (endpoint: mean survival time, dose: 14.0 mg/kg/injection, schedule: Q01DX009 (ip), vehicle: saline sonified) was 160 % of control and the T/C (endpoint: mean survival time, dose: 14.0 mg/kg/injection, schedule: Q01DX009 (ip), vehicle: saline with Tween-80) was 157 % of control and 172 % of control. The T/C (endpoint: mean survival time, dose: 15.0 mg/kg/injection, schedule: Q01DX005 (ip), vehicle: saline) was 158 % of control and 169 % of control, the T/C (endpoint: mean survival time, dose: 16.0 mg/kg/injection, schedule: Q01DX009 (oral), vehicle: saline) was 114 % of control and the T/C (endpoint: mean survival time, dose: 16.0 mg/kg/injection, schedule: Q03HX008 (ip), vehicle: water) was 163 % of control. For the same molecule, the T/C (endpoint: mean survival time, dose: 16.0 mg/kg/injection, schedule: Q03HX024 (ip), vehicle: water) was 120 % of control, the T/C (endpoint: mean survival time, dose: 20.0 mg/kg/injection, schedule: Q01DX009 (ip), vehicle: saline sonified) was 169 % of control and the T/C (endpoint: mean survival time, dose: 20.0 mg/kg/injection, schedule: Q03DX003 (ip), vehicle: saline) was 152 % of control. For the same molecule, the T/C (endpoint: mean survival time, dose: 22.5 mg/kg/injection, schedule: Q01DX009 (ip), vehicle: saline) was 117 % of control, the T/C (endpoint: mean survival time, dose: 25.0 mg/kg/injection, schedule: Q01DX001 (ip), vehicle: saline) was 117 % of control and the T/C (endpoint: mean survival time, dose: 25.0 mg/kg/injection, schedule: Q03HX024 (oral), vehicle: saline) was 118 % of control. The T/C (endpoint: mean survival time, dose: 30.0 mg/kg/injection, schedule: Q01DX003 (ip), vehicle: saline) was 168 % of control, the T/C (endpoint: mean survival time, dose: 30.0 mg/kg/injection, schedule: Q01DX003 (oral), vehicle: saline) was 123 % of control and the T/C (endpoint: mean survival time, dose: 30.0 mg/kg/injection, schedule: Q01DX005 (oral), vehicle: saline) was 119 % of control. The T/C (endpoint: mean survival time, dose: 30.0 mg/kg/injection, schedule: Q01DX009 (ip), vehicle: saline sonified) was 152 % of control, the T/C (endpoint: mean survival time, dose: 30.0 mg/kg/injection, schedule: Q04DX003 (ip), vehicle: saline sonified) was 152 % of control and the T/C (endpoint: mean survival time, dose: 32.0 mg/kg/injection, schedule: Q04DX003 (ip), vehicle: water) was 169 % of control. For the same molecule, the T/C (endpoint: mean survival time, dose: 32.0 mg/kg/injection, schedule: Q08DX002 (ip), vehicle: water) was 154 % of control, the T/C (endpoint: mean survival time, dose: 40.0 mg/kg/injection, schedule: Q04DX003 (ip), vehicle: saline sonified) was 165 % of control and the T/C (endpoint: mean survival time, dose: 40.0 mg/kg/injection, schedule: Q04DX003 (ip), vehicle: saline with Tween-80) was 160 % of control and 163 % of control and 172 % of control. The T/C (endpoint: mean survival time, dose: 44.0 mg/kg/injection, schedule: Q04DX003 (ip), vehicle: saline) was 172 % of control, the T/C (endpoint: mean survival time, dose: 50.0 mg/kg/injection, schedule: Q01DX009 (oral), vehicle: saline) was 116 % of control and the T/C (endpoint: mean survival time, dose: 50.0 mg/kg/injection, schedule: Q03HX008 (oral), vehicle: saline) was 122 % of control. The T/C (endpoint: mean survival time, dose: 50.0 mg/kg/injection, schedule: Q04DX003 (ip), vehicle: saline) was 172 % of control, the T/C (endpoint: mean survival time, dose: 60.0 mg/kg/injection, schedule: Q01DX005 (oral), vehicle: saline) was 117 % of control and the T/C (endpoint: mean survival time, dose: 60.0 mg/kg/injection, schedule: Q03HX024 (ip), vehicle: saline) was 164 % of control. For the same molecule, the T/C (endpoint: mean survival time, dose: 60.0 mg/kg/injection, schedule: Q04DX003 (ip), vehicle: saline sonified) was 164 % of control, the T/C (endpoint: mean survival time, dose: 60.0 mg/kg/injection, schedule: Q04DX003 (ip), vehicle: saline with Tween-80) was 164 % of control and the T/C (endpoint: mean survival time, dose: 62.5 mg/kg/injection, schedule: Q01DX001 (oral), vehicle: saline) was 113 % of control. For the same molecule, the T/C (endpoint: mean survival time, dose: 64.0 mg/kg/injection, schedule: Q01DX009 (oral), vehicle: saline) was 119 % of control, the T/C (endpoint: mean survival time, dose: 64.0 mg/kg/injection, schedule: Q04DX003 (ip), vehicle: water) was 160 % of control and the T/C (endpoint: mean survival time, dose: 64.0 mg/kg/injection, schedule: Q08DX002 (ip), vehicle: water) was 164 % of control. For the same molecule, the T/C (endpoint: mean survival time, dose: 67.5 mg/kg/injection, schedule: Q04DX003 (ip), vehicle: saline) was 150 % of control, the T/C (endpoint: mean survival time, dose: 80.0 mg/kg/injection, schedule: Q03HX024 (ip), vehicle: saline) was 176 % of control and the T/C (endpoint: mean survival time, dose: 80.0 mg/kg/injection, schedule: Q04DX003 (ip), vehicle: saline sonified) was 160 % of control. The T/C (endpoint: mean survival time, dose: 100.0 mg/kg/injection, schedule: Q08DX002 (oral), vehicle: saline) was 151 % of control, the T/C (endpoint: mean survival time, dose: 128.0 mg/kg/injection, schedule: Q04DX003 (ip), vehicle: water) was 120 % of control and the T/C (endpoint: mean survival time, dose: 128.0 mg/kg/injection, schedule: Q08DX002 (ip), vehicle: water) was 167 % of control. For the same molecule, the T/C (endpoint: mean survival time, dose: 132.0 mg/kg/injection, schedule: Q01DX001 (ip), vehicle: saline) was 153 % of control, the T/C (endpoint: mean survival time, dose: 166.0 mg/kg/injection, schedule: Q01DX001 (ip), vehicle: saline with Tween-80) was 150 % of control and the T/C (endpoint: mean survival time, dose: 200.0 mg/kg/injection, schedule: Q01DX001 (oral), vehicle: saline) was 118 % of control. The T/C (endpoint: mean survival time, dose: 200.0 mg/kg/injection, schedule: Q04DX003 (ip), vehicle: saline) was 159 % of control, the T/C (endpoint: mean survival time, dose: 256.0 mg/kg/injection, schedule: Q08DX002 (ip), vehicle: water) was 120 % of control and the T/C (endpoint: mean survival time, dose: 300.0 mg/kg/injection, schedule: Q01DX001 (ip), vehicle: saline with Tween-80) was 153 % of control. The T/C (endpoint: mean survival time, dose: 338.0 mg/kg/injection, schedule: Q01DX001 (ip), vehicle: saline) was 150 % of control, the T/C (endpoint: mean survival time, dose: 400.0 mg/kg/injection, schedule: Q04DX003 (ip), vehicle: saline with Tween-80) was 117 % of control and the T/C (endpoint: mean survival time, dose: 400.0 mg/kg/injection, schedule: Q04DX003 (ip), vehicle: saline) was 161 % of control. The T/C (endpoint: median survival time, dose: 6.48 mg/kg/injection, schedule: Q01DX009 (ip), vehicle: saline) was 120 % of control, the T/C (endpoint: median survival time, dose: 7.5 mg/kg/injection, schedule: Q01DX009 (ip), vehicle: saline) was 153 % of control and the T/C (endpoint: median survival time, dose: 7.5 mg/kg/injection, schedule: Q## X009 (ip), vehicle: saline) was 153 % of control. For the same molecule, the T/C (endpoint: median survival time, dose: 10.0 mg/kg/injection, schedule: Q01DX001 (ip), vehicle: saline) was 152 % of control, the T/C (endpoint: median survival time, dose: 13.0 mg/kg/injection, schedule: Q04DX002 (ip), vehicle: saline) was 121 % of control and the T/C (endpoint: median survival time, dose: 13.0 mg/kg/injection, schedule: Q04DX003 (ip), vehicle: saline) was 121 % of control. The T/C (endpoint: median survival time, dose: 14.3 mg/kg/injection, schedule: Q04DX003 (ip), vehicle: saline) was 124 % of control, the T/C (endpoint: median survival time, dose: 15.0 mg/kg/injection, schedule: Q01DX005 (ip), vehicle: saline) was 165 % of control and the T/C (endpoint: median survival time, dose: 15.0 mg/kg/injection, schedule: Q01DX009 (ip), vehicle: saline) was 167 % of control. For the same molecule, the T/C (endpoint: median survival time, dose: 15.0 mg/kg/injection, schedule: Q## X009 (ip), vehicle: saline) was 167 % of control, the T/C (endpoint: median survival time, dose: 20.0 mg/kg/injection, schedule: Q01DX001 (ip), vehicle: saline) was 154 % of control and the T/C (endpoint: median survival time, dose: 21.6 mg/kg/injection, schedule: Q04DX002 (ip), vehicle: saline) was 123 % of control. For the same molecule, the T/C (endpoint: median survival time, dose: 30.0 mg/kg/injection, schedule: Q01DX009 (ip), vehicle: saline) was 173 % of control, the T/C (endpoint: median survival time, dose: 36.0 mg/kg/injection, schedule: Q04DX003 (ip), vehicle: saline) was 160 % of control and 167 % of control and the T/C (endpoint: median survival time, dose: 39.6 mg/kg/injection, schedule: Q04DX003 (ip), vehicle: saline) was 164 % of control. The T/C (endpoint: median survival time, dose: 40.0 mg/kg/injection, schedule: Q04DX002 (ip), vehicle: saline) was 162 % of control, the T/C (endpoint: median survival time, dose: 80.0 mg/kg/injection, schedule: Q04DX002 (ip), vehicle: saline) was 166 % of control and the T/C (endpoint: median survival time, dose: 100.0 mg/kg/injection, schedule: Q04DX003 (ip), vehicle: saline) was 151 % of control. For the same molecule, the T/C (endpoint: median survival time, dose: 300.0 mg/kg/injection, schedule: Q01DX001 (ip), vehicle: Klucel (hydroxypropylcellulose) (HPC)) was 174 % of control.
